Series [1] deals with Keap1/Nrf2 (Homo sapiens) (UniProt Q16236+Q14145). The series is described as follows: Binding affinity to human Keap1-Nrf2 protein-protein interaction assessed as dissociation constant (Kd2) incubated for 60 mins by fluorescent polarization assay.
Series [2] is described as follows: Cytotoxicity against mouse peritoneal macrophages assessed as reduction in cell viability incubated for 24 hrs by Cell titer-blue assay. In kind it is toxicity, cell-based, Peritoneal macrophage.
Series [3] concerns Peritoneal macrophage. Briefly: Antiinflammatory activity in mouse peritoneal macrophages assessed as fold reduction in LPS-induced TNFalpha level at 10 uM incubated for 4 hrs by ELISA method. Format: functional.
For series [4], the system named is Peritoneal macrophage. The series is described as follows: Antiinflammatory activity in mouse peritoneal macrophages assessed as reduction in LPS-induced IL6 level at 10 uM incubated for 4 hrs by ELISA method. Format: functional, cell-based.

In general, CC50 refers to the concentration at which the toxic effect on the cells reaches its halfway point.

Activity calls are given as the source filed them. No cut-off for these calls is given here.

Sequence of Keap1/Nrf2 (Homo sapiens) (Q14145 whole entry, looked up): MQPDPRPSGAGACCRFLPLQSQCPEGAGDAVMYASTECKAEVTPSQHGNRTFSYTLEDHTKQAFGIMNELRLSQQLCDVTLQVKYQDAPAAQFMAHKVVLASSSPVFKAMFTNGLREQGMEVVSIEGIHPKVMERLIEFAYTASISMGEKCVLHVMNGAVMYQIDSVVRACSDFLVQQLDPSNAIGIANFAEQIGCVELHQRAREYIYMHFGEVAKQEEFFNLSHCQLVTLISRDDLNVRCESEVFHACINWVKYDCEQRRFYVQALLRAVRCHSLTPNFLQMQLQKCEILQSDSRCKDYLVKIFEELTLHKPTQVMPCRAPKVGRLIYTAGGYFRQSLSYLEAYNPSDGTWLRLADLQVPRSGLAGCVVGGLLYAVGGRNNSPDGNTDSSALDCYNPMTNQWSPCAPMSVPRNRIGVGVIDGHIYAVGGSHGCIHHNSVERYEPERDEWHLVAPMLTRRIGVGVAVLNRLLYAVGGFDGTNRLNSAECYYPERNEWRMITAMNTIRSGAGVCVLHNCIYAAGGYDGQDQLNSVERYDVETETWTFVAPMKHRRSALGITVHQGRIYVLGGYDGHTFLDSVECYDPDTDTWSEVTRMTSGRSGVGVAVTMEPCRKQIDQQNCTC
Sequence of Keap1/Nrf2 (Homo sapiens) (Q16236 whole entry, looked up): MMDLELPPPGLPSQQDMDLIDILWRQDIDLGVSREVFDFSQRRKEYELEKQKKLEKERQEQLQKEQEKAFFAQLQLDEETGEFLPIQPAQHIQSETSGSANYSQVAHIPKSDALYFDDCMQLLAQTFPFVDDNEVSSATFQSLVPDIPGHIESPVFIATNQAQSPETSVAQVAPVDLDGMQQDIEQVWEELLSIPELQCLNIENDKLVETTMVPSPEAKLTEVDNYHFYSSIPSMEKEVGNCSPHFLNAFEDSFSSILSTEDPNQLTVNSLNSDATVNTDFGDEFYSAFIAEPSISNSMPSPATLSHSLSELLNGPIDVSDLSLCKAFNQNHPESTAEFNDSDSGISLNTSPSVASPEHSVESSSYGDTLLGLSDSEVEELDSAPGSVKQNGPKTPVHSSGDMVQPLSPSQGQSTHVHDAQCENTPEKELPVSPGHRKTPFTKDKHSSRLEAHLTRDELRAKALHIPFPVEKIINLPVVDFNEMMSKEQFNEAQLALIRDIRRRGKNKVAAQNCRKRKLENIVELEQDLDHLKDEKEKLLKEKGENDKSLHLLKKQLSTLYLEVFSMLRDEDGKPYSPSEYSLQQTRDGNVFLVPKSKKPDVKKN

For `CNCC(=O)Nc1ccc(S(=O)(=O)N(CC(N)=O)c2ccc(N(CC(N)=O)S(=O)(=O)c3ccc(OC)cc3)c3ccccc23)cc1`, the K in series [1] was determined as 250 nM. For the same molecule, the 50% cytotoxic concentration (CC50) at 24 h in series [2] was more than 100 µM. Also, the “fold change (FC)” value in the series with Peritoneal macrophage [3] is given as “<=0.5”. For the same molecule, the result in the series on Peritoneal macrophage [4] was Active.

Take `COc1ccc(S(=O)(=O)N(CC(N)=O)c2ccc(N(CC(N)=O)S(=O)(=O)c3ccc(NC(=O)[C@@H]4CCCNC4)cc3)c3ccccc23)cc1`: the K in series [1] worked out at 270 nM. The CC50 at 24 h in series [2] was more than 100 µM. The “fold change (FC)” value with Peritoneal macrophage [3] was “<=0.5”. In addition, in the series with Peritoneal macrophage [4], the result was Active.

As to `COc1ccc(S(=O)(=O)N(CC(N)=O)c2ccc(N(CC(N)=O)S(=O)(=O)c3ccc(NC(=O)C4CCNC4)cc3)c3ccccc23)cc1` (stereo unspecified), in series [1], the K turned out to be 280 nM. Further, the cytotoxic concentration (CC50) at 24 h in series [2] is more than 100 µM. The “fold change (FC)” value with Peritoneal macrophage [3] is reported as “<=0.5”. For the same molecule, in the series with Peritoneal macrophage [4], the result was Active.

For the molecule `COc1ccc(S(=O)(=O)N(CC(N)=O)c2ccc(N(CC(N)=O)S(=O)(=O)c3ccc(NC(=O)[C@@H]4CCCN4)cc3)c3ccccc23)cc1`, the K in series [1] was 270 nM. Also, the CC50 at 24 h in series [2] was more than 100 µM. The “fold change (FC)” value in the series on Peritoneal macrophage [3] is listed as “<=0.5”. In addition, the outcome with Peritoneal macrophage [4] was Active.

As to `COC[C@H](N)C(=O)Nc1ccc(S(=O)(=O)N(CC(N)=O)c2ccc(N(CC(N)=O)S(=O)(=O)c3ccc(OC)cc3)c3ccccc23)cc1`, the K in series [1] amounted to 330 nM. The cytotoxic concentration (CC50) at 24 h in series [2] was more than 100 µM. Also, the “fold change (FC)” value in the series with Peritoneal macrophage [3] is recorded as “<=0.5”. Moreover, the outcome in the series with Peritoneal macrophage [4] was Active.

With `COc1ccc(S(=O)(=O)N(CC(N)=O)c2ccc(N(CC(N)=O)S(=O)(=O)c3ccc(NC(=O)[C@H](C)N)cc3)c3ccccc23)cc1`, the K in series [1] was determined as 240 nM. Moreover, in series [2], the half-maximal cytotoxic concentration (CC50) at 24 h was more than 100 µM. In addition, the “fold change (FC)” value in the series on Peritoneal macrophage [3] is given as “<=0.5”. Moreover, the outcome in the series on Peritoneal macrophage [4] was Active.

For the molecule `COc1ccc(S(=O)(=O)N(CC(N)=O)c2ccc(N(CC(N)=O)S(=O)(=O)c3ccc(NC(=O)C4CCN4)cc3)c3ccccc23)cc1` (stereo unspecified), in series [1], the K stood at 260 nM. Moreover, the CC50 at 24 h in series [2] is more than 100 µM. Further, the “fold change (FC)” value in the series with Peritoneal macrophage [3] is given as “<=0.5”. Further, the result in the series on Peritoneal macrophage [4] was Active.

As for `CC[C@@H](N)C(=O)Nc1ccc(S(=O)(=O)N(CC(N)=O)c2ccc(N(CC(N)=O)S(=O)(=O)c3ccc(OC)cc3)c3ccccc23)cc1`, the K in series [1] amounted to 320 nM. Further, in series [2], the CC50 at 24 h was more than 100 µM. In addition, the “fold change (FC)” value with Peritoneal macrophage [3] is on record as “<=0.5”. Further, the outcome in the series on Peritoneal macrophage [4] was Active.

Turning to `COc1ccc(S(=O)(=O)N(CC(N)=O)c2ccc(N(CC(N)=O)S(=O)(=O)c3ccc(NC(=O)[C@@H]4CCNC4)cc3)c3ccccc23)cc1`, the K in series [1] worked out at 240 nM. Moreover, in series [2], the CC50 at 24 h was more than 100 µM. Also, in the series on Peritoneal macrophage [3], the “fold change (FC)” value is recorded as “<=0.5”. For the same molecule, the result in the series on Peritoneal macrophage [4] was Active.

On to `COc1ccc(S(=O)(=O)N(CC(N)=O)c2ccc(N(CC(N)=O)S(=O)(=O)c3ccc(NC(=O)[C@H]4CCNC4)cc3)c3ccccc23)cc1`, for which the K in series [1] came to 250 nM. Besides, in series [2], the cytotoxic concentration (CC50) at 24 h is more than 100 µM. In addition, the “fold change (FC)” value in the series with Peritoneal macrophage [3] is given as “<=0.5”. In the series with Peritoneal macrophage [4], the result was Active.

In the case of `COc1ccc(S(=O)(=O)N(CC(N)=O)c2ccc(N(CC(N)=O)S(=O)(=O)c3ccc(NC(=O)[C@H]4CCCN4)cc3)c3ccccc23)cc1`, the K in series [1] turned out to be 300 nM. For the same molecule, in series [2], the CC50 at 24 h was more than 100 µM. In addition, the “fold change (FC)” value in the series on Peritoneal macrophage [3] is “<=0.5”. Also, in the series with Peritoneal macrophage [4], the outcome was Active.

As for `COc1ccc(S(=O)(=O)N(CC(N)=O)c2ccc(N(CC(N)=O)S(=O)(=O)c3ccc(NC(=O)[C@@H](C)N)cc3)c3ccccc23)cc1`, in series [1], the K amounted to 230 nM. Further, the CC50 at 24 h in series [2] was more than 100 µM. The “fold change (FC)” value in the series with Peritoneal macrophage [3] is given as “<=0.5”. In the series on Peritoneal macrophage [4], the outcome was Active.

In the case of `COc1ccc(S(=O)(=O)N(CC(N)=O)c2ccc(N(CC(N)=O)S(=O)(=O)c3ccc(NC(=O)[C@H](N)C(C)C)cc3)c3ccccc23)cc1`, the K in series [1] stood at 810 nM. In addition, in series [2], the CC50 at 24 h is more than 100 µM. The “fold change (FC)” value with Peritoneal macrophage [3] was “<=0.5”.

The values above are taken from ChEMBL document CHEMBL5338809, “Fragment-Based Discovery of Azocyclic Alkyl Naphthalenesulfonamides as Keap1-Nrf2 Inhibitors for Acute Lung Injury Treatment” (J Med Chem, 2023).
